Measurements reported in ChEMBL document CHEMBL5260810, “Inhibition of bromodomain-containing protein 9 for the prevention of epigenetically-defined drug resistance” (Bioorg Med Chem Lett, 2017).

Key:
Assay type in all cases: functional, cell-based
SNU-423 = experiment: Cytotoxicity against human SNU-423 cells measured after 8 days; conditions: SNU-423, 192 h
[1] = Cytotoxicity against human KE-39 cells measured after 8 days; conditions: KE-39, 192 h
SNB-19 = experiment: Cytotoxicity against human SNB-19 cells measured after 8 days; conditions: SNB-19, 192 h
[2] = Cytotoxicity against human COV362 cells measured after 8 days; conditions: COV362, 192 h
KG-1 = experiment: Cytotoxicity against human KG-1 cells measured after 8 days; conditions: KG-1, 192 h
[3] = Cytotoxicity against human OVCA 420 cells measured after 8 days; conditions: OVCA 420, 192 h
MCF-10A [4] = experiment: Cytotoxicity against human MCF-10A cells measured after 8 days; conditions: 192 h
LN-229 = experiment: Cytotoxicity against human LN-229 cells measured after 8 days; conditions: LN-229, 192 h
[5] = Cytotoxicity against human HCC1482 cells measured after 8 days; conditions: HCC1482, 192 h
[6] = Cytotoxicity against human ECC-1 cells measured after 8 days; conditions: ECC-1, 192 h
HuP-T4 = experiment: Cytotoxicity against human HuP-T4 cells measured after 8 days; conditions: HuP-T4, 192 h
AN3-CA = experiment: Cytotoxicity against human AN3-CA cells measured after 8 days; conditions: 192 h
MCF-10A [7] = experiment: Cytotoxicity against human MCF-10A PTEN-/- cells measured after 8 days; conditions: 192 h
[8] = Cytotoxicity against human NCE-G 124 cells measured after 8 days; conditions: NCE-G 124, 192 h
KYSE-140 = experiment: Cytotoxicity against human KYSE-140 cells measured after 8 days; conditions: KYSE-140, 192 h
BT-20 = experiment: Cytotoxicity against human BT-20 cells measured after 8 days; conditions: BT-20, 192 h
B16-F1 = experiment: Cytotoxicity against mouse B16-F1 cells measured after 8 days; conditions: B16-F1, 192 h
RPMI-7951 = experiment: Cytotoxicity against human RPMI-7951 cells measured after 8 days; conditions: RPMI-7951, 192 h
[9] = Cytotoxicity against human KHM-1B cells measured after 8 days; conditions: 192 h
Malme-3M = experiment: Cytotoxicity against human Malme-3M cells measured after 8 days; conditions: 192 h
[10] = Cytotoxicity against human KP-3L cells measured after 8 days; conditions: 192 h
[11] = Cytotoxicity against human 4498-16820 Mel-BR1 cells measured after 8 days; conditions: 4498-16820 Mel-BR1, 192 h
[12] = Cytotoxicity against human OVCA432 cells measured after 8 days; conditions: OVCA432, 192 h
[13] = Cytotoxicity against human SCLC-22H cells measured after 8 days; conditions: 192 h
[14] = Cytotoxicity against human JHH-4 cells measured after 8 days; conditions: JHH-4, 192 h
MCF-10A [15] = experiment: Cytotoxicity against human MCF-10A AKT2-/- cells measured after 8 days; conditions: 192 h
SW626 = experiment: Cytotoxicity against human SW626 cells measured after 8 days; conditions: SW626, 192 h
[16] = Cytotoxicity against mouse LTPA cells measured after 8 days; conditions: 192 h
[17] = Cytotoxicity against human TYK-nu.CP-r cells measured after 8 days; conditions: 192 h
[18] = Cytotoxicity against mouse 4T1-Luc cells measured after 8 days; conditions: 192 h
CHL-1 = experiment: Cytotoxicity against human CHL-1 cells measured after 8 days; conditions: CHL-1, 192 h
AM-38 = experiment: Cytotoxicity against human AM-38 cells measured after 8 days; conditions: AM-38, 192 h
[19] = Cytotoxicity against human JHH-2 cells measured after 8 days; conditions: JHH-2, 192 h
DOV13 = experiment: Cytotoxicity against human DOV13 cells measured after 8 days; conditions: DOV13, 192 h
Karpas-1106P = experiment: Cytotoxicity against human KARPAS-1106P cells measured after 8 days; conditions: 192 h
KLE = experiment: Cytotoxicity against human KLE cells measured after 8 days; conditions: 192 h
OE19 = experiment: Cytotoxicity against human OE19 cells measured after 8 days; conditions: OE19, 192 h
[20] = Cytotoxicity against human 59M cells measured after 8 days; conditions: 192 h
SK-N-SH = experiment: Cytotoxicity against human SK-N-SH cells measured after 8 days; conditions: 192 h
[21] = Cytotoxicity against human PE/CA-PJ15 cells measured after 8 days; conditions: PE/CA-PJ15, 192 h
[22] = Cytotoxicity against human Fu97 cells measured after 8 days; conditions: Fu97, 192 h
[23] = Cytotoxicity against human HEC-116 cells measured after 8 days; conditions: HEC-116, 192 h
[24] = Cytotoxicity against human NCE-G 61 cells measured after 8 days; conditions: NCE-G 61, 192 h
[25] = Cytotoxicity against human UCSD-242L cells measured after 8 days; conditions: 192 h
[26] = Cytotoxicity against human NB(TU)1 cells measured after 8 days; conditions: NB(TU)1, 192 h
[27] = Cytotoxicity against human NCE-G 120 cells measured after 8 days; conditions: NCE-G 120, 192 h
CCF-STTG1 = experiment: Cytotoxicity against human CCF-STTG1 cells measured after 8 days; conditions: CCF-STTG1, 192 h
SNU-16 = experiment: Cytotoxicity against human SNU-16 cells measured after 8 days; conditions: SNU-16, 192 h
Hep 3B2 = experiment: Cytotoxicity against human Hep 3B2.1-7 cells measured after 8 days; conditions: Hep3B, 192 h
HMV-2 cell line = experiment: Cytotoxicity against human HMV-2 cell line measured after 8 days; conditions: HMV-2, 192 h
SK-MEL-2 = experiment: Cytotoxicity against human SK-MEL-2 cells measured after 8 days; conditions: SK-MEL-2, 192 h
[28] = Cytotoxicity against human HEC-88nu cells measured after 8 days; conditions: 192 h
[29] = Cytotoxicity against human SNU-484 cells measured after 8 days; conditions: SNU-484, 192 h
OAW-42 = experiment: Cytotoxicity against human OAW-42 cells measured after 8 days; conditions: OAW-42, 192 h
[30] = Cytotoxicity against human SUM52PE cells measured after 8 days; conditions: 192 h
Skut1B = experiment: Cytotoxicity against human Skut1B cells measured after 8 days; conditions: 192 h
[31] = Cytotoxicity against human NCI-H196 cells measured after 8 days; conditions: NCI-H196, 192 h
NCI-H716 = experiment: Cytotoxicity against human NCI-H716 cells measured after 8 days; conditions: NCI-H716, 192 h
[32] = Cytotoxicity against human SKG-II cells measured after 8 days; conditions: 192 h
COLO-680N = experiment: Cytotoxicity against human COLO-680N cells measured after 8 days; conditions: 192 h
[33] = Cytotoxicity against human MOLP8 cells measured after 8 days; conditions: MOLP-8, 192 h
A 172 = experiment: Cytotoxicity against human A-172 cells measured after 8 days; conditions: A 172, 192 h
[34] = Cytotoxicity against human Karpas-620 cells measured after 8 days; conditions: Karpas-620, 192 h
MCF-10A [35] = experiment: Cytotoxicity against human MCF-10A CDH1-/- cells measured after 8 days; conditions: 192 h

C/C=C/Cn1cc(-c2ccc(C(C)(C)O)cc2OC)c2cc[nH]c2c1=O
IC50 (SNU-423): 20 µM | IC50 [1]: 20 µM | IC50 (SNB-19): 20 µM | IC50 [2]: 20 µM | IC50 (KG-1): 20 µM | IC50 [3]: 20 µM | IC50 (MCF-10A [4]): 11.4 µM | IC50 (LN-229): 20 µM | IC50 [5]: 20 µM | IC50 [6]: 20 µM | IC50 (HuP-T4): 20 µM | IC50 (AN3-CA): 20 µM | IC50 (MCF-10A [7]): 20 µM | IC50 [8]: 20 µM | IC50 (KYSE-140): 20 µM | IC50 (BT-20): 20 µM | IC50 (B16-F1): 20 µM | IC50 (RPMI-7951): 20 µM | IC50 [9]: 20 µM | IC50 (Malme-3M): 20 µM | IC50 [10]: 20 µM | IC50 [11]: 15.5 µM | IC50 [12]: 20 µM | IC50 [13]: 20 µM | IC50 [14]: 20 µM | IC50 (MCF-10A [15]): 14.2 µM | IC50 (SW626): 20 µM | IC50 [16]: 20 µM | IC50 [17]: 20 µM | IC50 [18]: 20 µM | IC50 (CHL-1): 15.2 µM | IC50 (AM-38): 20 µM | IC50 [19]: 20 µM | IC50 (DOV13): 20 µM | IC50 (Karpas-1106P): 8.61 µM | IC50 (KLE): 20 µM | IC50 (OE19): 20 µM | IC50 [20]: 20 µM | IC50 (SK-N-SH): 20 µM | IC50 [21]: 20 µM | IC50 [22]: 20 µM | IC50 [23]: 20 µM | IC50 [24]: 20 µM | IC50 [25]: 20 µM | IC50 [26]: 20 µM | IC50 [27]: 20 µM | IC50 (CCF-STTG1): 20 µM | IC50 (SNU-16): 20 µM | IC50 (Hep 3B2): 20 µM | IC50 (HMV-2 cell line): 20 µM | IC50 (SK-MEL-2): 20 µM | IC50 [28]: 20 µM | IC50 [29]: 20 µM | IC50 (OAW-42): 20 µM | IC50 [30]: 20 µM | IC50 (Skut1B): 20 µM | IC50 [31]: 20 µM | IC50 (NCI-H716): 20 µM | IC50 [32]: 20 µM | IC50 (COLO-680N): 20 µM | IC50 [33]: 20 µM | IC50 (A 172): 20 µM | IC50 [34]: 20 µM | IC50 (MCF-10A [35]): 20 µM

C/C=C/Cn1cc(-c2ccc(C(=O)N3CCOCC3)cc2)c2cc[nH]c2c1=O
IC50 (SNU-423): 20 µM | IC50 [1]: 20 µM | IC50 (SNB-19): 20 µM | IC50 [2]: 20 µM | IC50 (KG-1): 20 µM | IC50 [3]: 20 µM | IC50 (MCF-10A [4]): 20 µM | IC50 (LN-229): 20 µM | IC50 [5]: 20 µM | IC50 [6]: 20 µM | IC50 (HuP-T4): 20 µM | IC50 (AN3-CA): 20 µM | IC50 (MCF-10A [7]): 20 µM | IC50 [8]: 20 µM | IC50 (KYSE-140): 20 µM | IC50 (BT-20): 20 µM | IC50 (B16-F1): 13.5 µM | IC50 (RPMI-7951): 20 µM | IC50 [9]: 20 µM | IC50 (Malme-3M): 20 µM | IC50 [10]: 20 µM | IC50 [11]: 20 µM | IC50 [12]: 20 µM | IC50 [13]: 20 µM | IC50 [14]: 20 µM | IC50 (MCF-10A [15]): 14.2 µM | IC50 (SW626): 20 µM | IC50 [16]: 20 µM | IC50 [17]: 20 µM | IC50 [18]: 20 µM | IC50 (CHL-1): 15.2 µM | IC50 (AM-38): 20 µM | IC50 [19]: 20 µM | IC50 (DOV13): 20 µM | IC50 (Karpas-1106P): 12.2 µM | IC50 (KLE): 20 µM | IC50 (OE19): 20 µM | IC50 [20]: 20 µM | IC50 (SK-N-SH): 20 µM | IC50 [21]: 20 µM | IC50 [22]: 20 µM | IC50 [23]: 20 µM | IC50 [24]: 20 µM | IC50 [25]: 20 µM | IC50 [26]: 20 µM | IC50 [27]: 20 µM | IC50 (CCF-STTG1): 20 µM | IC50 (SNU-16): 20 µM | IC50 (Hep 3B2): 20 µM | IC50 (HMV-2 cell line): 20 µM | IC50 (SK-MEL-2): 20 µM | IC50 [28]: 20 µM | IC50 [29]: 20 µM | IC50 (OAW-42): 20 µM | IC50 [30]: 20 µM | IC50 (Skut1B): 20 µM | IC50 [31]: 20 µM | IC50 (NCI-H716): 20 µM | IC50 [32]: 20 µM | IC50 (COLO-680N): 20 µM | IC50 [33]: 18.3 µM | IC50 (A 172): 20 µM | IC50 [34]: 20 µM | IC50 (MCF-10A [35]): 20 µM
